# Where two headings read alike, the source gives them in different places.
# Tests used:
# HepG2 cells [1] = conditions: cited from earlier work
# rat primary hepatocytes [2] = system: rat primary hepatocytes
# HepG2 cells [3] = test: cells; conditions: Homo sapiens; for IC50: HepG2, read-out: MMP assays IC50 (µM) HepG2; for Emax: HepG2, read-out: MMP assays efficacy (%) HepG2
# rat primary hepatocytes [4] = test: MMP assay in rat primary hepatocytes; conditions: for IC50: Rattus norvegicus, Hepatocyte, read-out: MMP assays IC50 (µM) Rat Hepatocytes
# [5] = read-out: MMP assays IC50 (µM) qHTS-HepG2
# [6] = read-out: MMP assays IC50 (µM), qHTS-HepG2
Compound,MMP assays efficacy (%) qHTS-HepG2 (HepG2 cells [1]),IC50 (HepG2 cells [1]; [5]),MMP assays efficacy (%) Rat Hepatocytes (rat primary hepatocytes [2]),IC50 (HepG2 cells [3]),Emax (HepG2 cells [3]),IC50 (rat primary hepatocytes [4]),MMP assays IC50 (µM) Rat Hepatocytes (rat primary hepatocytes [4]),IC50 (HepG2 cells [1]; [6])
CN1C(=O)[C@@H](NC(=O)c2cc3ccccc3[nH]2)N=C(c2ccccc2)c2ccccc21 [Devazepide],-81±7%,12.5 ± 5.62 µM,-50±14%,10.9 µM,63%,15.6 ± 7.19 µM,,
"Nc1cccc2c(N)cccc12 [1,5-Naphthalenediamine]",-76±19%,17 ± 19.6 µM,inactive,3.16 µM,101%,,inactive,
C[C@H]1O[C@@H](O[C@H]2[C@@H](O)C[C@H](O[C@H]3[C@@H](O)C[C@H](O[C@H]4CC[C@@]5(C)[C@H](CC[C@@H]6[C@@H]5C[C@@H](O)[C@]5(C)[C@@H](C7=CC(=O)OC7)CC[C@]65O)C4)O[C@@H]3C)O[C@@H]2C)C[C@H](O)[C@@H]1O [Digoxin],-71±8%,0.52 ± 0.09 µM,inactive,0.13 µM,105%,,inactive,
N=C(N)NN=C1C=CC(=NNC(N)=S)C=C1 [Ambazone],-98±7%,5.6 ± 3.23 µM,-52±11%,3.98 µM,61%,1.98 ± 2.22 µM,,
"CCC(C)c1cccc(C(C)CC)c1O (centres unmarked) [2,6-Di(butan-2-yl)phenol]",-85±30%,13.7 ± 3.19 µM,inactive,15.8 µM,110%,,inactive,
Oc1ccc(/C=C/c2cc(O)cc(O)c2)cc1 [Resveratrol],-66±11%,,inactive,3.71 µM,33%,,inactive,1.6 ± 0.43 µM
COC(=O)N(C(=O)N1CO[C@@]2(C(=O)OC)Cc3cc(Cl)ccc3C2=N1)c1ccc(OC(F)(F)F)cc1 [Indoxacarb],-83±20%,,-88±26%,15.3 µM,57%,34.4 ± 5.58 µM,,12.7 ± 3.65 µM
Cc1cc(NC(=O)C2=C(O)c3ccccc3S(=O)(=O)N2C)no1 [Isoxicam],-66±27%,,-60±55%,2.75 µM,38%,4.92 ± 0.8 µM,,5.18 ± 2.9 µM
O=C1c2cccc(O)c2C(=O)c2c(O)cccc21 [Danthron],-78±3%,4.66 ± 1.19 µM,-40±18%,15.5 µM,91%,5.97 ± 5.35 µM,,
CC(C)C[C@H]1C(=O)N2CCC[C@H]2[C@]2(O)O[C@](NC(=O)[C@@H]3C=C4c5cccc6[nH]c(Br)c(c56)C[C@H]4N(C)C3)(C(C)C)C(=O)N12 [Bromocriptine],-112±8%,11.4 ± 1.58 µM,-68±7%,21.8 µM,121%,13.2 ± 10.8 µM,,
"CC(C)(C)CC(C)(C)c1ccc(O)cc1 [4-(1,1,3,3-Tetramethylbutyl)phenol]",-103±8%,4.25 ± 0.92 µM,inactive,4.89 µM,100%,,inactive,
"Cc1c(N)cccc1N [2,6-Toluenediamine]",-72±11%,15.7 ± 10 µM,-44±11%,28.2 µM,85%,32.2 ± 7.36 µM,,
CCN(CC)C(=O)[C@@H]1C=C2c3cccc4[nH]cc(c34)C[C@H]2N(C)C1 [Lysergide],-54±2%,,inactive,17.3 µM,48%,,inactive,9.03 ± 1.87 µM
CCC(=O)c1c(O)cc(O)cc1O [Flopropione],-111±23%,,inactive,17.3 µM,103%,,inactive,18.8 ± 6.83 µM
"Cc1cc(C(C)(C)c2ccc(O)c(C)c2)ccc1O [3,3'-Dimethylbisphenol A]",-118±22%,8.88 ± 3.37 µM,-56±26%,11.2 µM,110%,34.4 ± 4.73 µM,,
ClC1=C(Cl)C2(Cl)C3C(Cl)C=CC3C1(Cl)C2(Cl)Cl (centres unmarked) [Heptachlor],,,inactive,31.6 µM,87%,,inactive,39.4 ± 17.9 µM
CSC1=N[C@@](C)(c2ccccc2)C(=O)N1Nc1ccccc1 [Fenamidone],-72±14%,43.3 ± 17.1 µM,-56±23%,19.9 µM,59%,42.8 ± 10.3 µM,,
CC(=O)O[C@H]1C[C@H](O[C@H]2[C@@H](O)C[C@H](O[C@H]3[C@@H](O)C[C@H](OC4CC[C@@]5(C)[C@H](CC[C@@H]6[C@@H]5CC[C@]5(C)[C@@H](C7=CC(=O)OC7)CC[C@]65O)C4)O[C@@H]3C)O[C@@H]2C)O[C@H](C)[C@H]1O[C@@H]1O[C@H](CO)[C@@H](O)[C@H](O)[C@H]1O (some centres unmarked) [Lanatoside A],-69±2%,,inactive,0.14 µM,91%,,inactive,0.43 ± 0.04 µM
O=P(Oc1ccccc1)(Oc1ccccc1)Oc1ccccc1 [Triphenyl phosphate],-98±14%,,-56±38%,1.26 µM,48%,28.9 ± 9.26 µM,,1.38 ± 1.48 µM
COC(=O)Nc1nc2ccc(C(=O)c3cccs3)cc2[nH]1 [Nocodazole],-62±6%,,inactive,2.18 µM,87%,,inactive,3.53 ± 1.63 µM
C[C@H]1O[C@@H](O[C@H]2[C@@H](O)C[C@H](O[C@H]3[C@@H](O)C[C@H](O[C@H]4CC[C@@]5(C)[C@H](CC[C@@H]6[C@@H]5CC[C@]5(C)[C@@H](C7=CC(=O)OC7)CC[C@]65O)C4)O[C@@H]3C)O[C@@H]2C)C[C@H](O)[C@@H]1O [Digitoxin],-77±6%,0.16 ± 0.05 µM,inactive,0.06 µM,97%,,inactive,
CC(=O)c1cc2c(cc1C)C(C)(C)C(C)CC2(C)C (centres unmarked),-74±22%,30.6 ± 18.9 µM,inactive,28.2 µM,73%,,inactive,
C[C@@H]1O[C@@H](O[C@H]2C[C@@H](O)[C@]3(CO)[C@H]4[C@H](O)C[C@]5(C)[C@@H](C6=CC(=O)OC6)CC[C@]5(O)[C@@H]4CC[C@]3(O)C2)[C@H](O)[C@H](O)[C@H]1O [Ouabain],-88±7%,,inactive,0.22 µM,94%,,inactive,0.18 µM
CCC(C)(CC)c1cc(NC(=O)c2c(OC)cccc2OC)on1 [Isoxaben],-80±23%,,inactive,14.1 µM,60%,,inactive,26.3 ± 5.75 µM
Cc1ccc2c(c1N)C(=O)c1ccccc1C2=O [Compound 1-Amino-2-methylanthraquinone],-82±1%,0.64 ± 0.08 µM,-85±28%,2.51 µM,92%,5.28 ± 3.3 µM,,

# From publication PMC6112376, “Comprehensive Analyses and Prioritization of Tox21 10K Chemicals Affecting Mitochondrial Function by in-Depth Mechanistic Studies” (Environmental Health Perspectives, 2018)
